In patent US20250205337A1, “COMPOSITIONS AND METHODS FOR ACTIVATING IMMUNE CELLS” (MDX Management LLC, priority 2022, published 2025):

System: monocytes from cancer patients (cMo)
Assay: cMo survival in vitro (STAT3 activators, inhibitors, M-CSF/GM-CSF, KX1)
Type: cell-based, human
Conditions: for effect of inhibitor on KX1-supported cMo survival: cMo in KX1; for cMo survival (and differentiation) on supplementation: IL-10-depleted KX1 / in place of IL-10; for Effectiveness (cMo survival rate): in vitro, at optimal concentration; for Optimal concentration (ng/mL): promoting cMo survival in vitro
Text: After two days, the T cell culture medium was used to treat cMo.
IL-10/IL-10R signaling activates the downstream STAT3 signaling pathway.
The mechanisms by which KX1 could promote cMo survival was further studied.

[1] = small molecule STAT3 activators

Row | Molecule | effect of inhibitor on KX1-supported cMo survival | cMo survival (and differentiation) on supplementation | Effectiveness (cMo survival rate) | further results
1 | CC(=O)c1cc2c(o1)C(=O)c1ccccc1C2=O [Napabucasin, reference compound] | dose-dependently nullified the effect of KX1 | – | – | –
2 | COc1c(O)cc2oc3cc(O)c(CC=C(C)C)c(O)c3c(=O)c2c1CCC(C)(C)O [Garcinone D, reference compound] | – | restored cMo survival | 90-100% | Optimal concentration (ng/mL) [1]: 500 to 2000 ng/mL
3 | Colivelin TFA [reference compound] | – | restored cMo survival | 90-100% | Optimal concentration (ng/mL) [1]: 10000 to 100000 ng/mL
4 | NC1(Cc2ccc(Cl)cc2)CCN(c2ncnc3[nH]ccc23)CC1 [CCT128930, reference compound] | abrogated KX1 effectiveness | – | – | –
5 | JAK inhibitor I [reference compound] | dose-dependently nullified the effect of KX1 | – | – | –
6 | COc1ccc(S(=O)(=O)Nc2cc(-c3c(O)ccc4ccccc34)c(O)c3ccccc23)cc1 [C188-9, reference compound] | dose-dependently nullified the effect of KX1 | – | – | –
7 | N#CC(=C(/N)Sc1ccccc1N)/C(C#N)=C(\N)Sc1ccccc1N [U0126, reference compound] | abrogated KX1 effectiveness | – | – | –
8 | Cc1[nH]nc2ccc(-c3cncc(OC[C@@H](N)Cc4ccccc4)c3)cc12 [A-674563, reference compound] | abrogated KX1 effectiveness | – | – | –
9 | IL-23: IL-12 family cytokine, STAT3 activator (protein, UniProt Q9NPF7 20-189; P29460 23-328, looked up) Interleukin-23 subunit alpha: RAVPGGSSPAWTQCQQLSQKLCTLAWSAHPLVGHMDLREEGDEETTNDVPHIQCGDGCDPQGLRDNSQFCLQRIHQGLIFYEKLLGSDIFTGEPSLLPDSPVGQLHASLLGLSQLLQPEGHHWETQQIPSLSPSQPWQRLLLRFKILRSLQAFVAVAARVFAHGAATLSP Interleukin-12 subunit beta: IWELKKDVYVVELDWYPDAPGEMVVLTCDTPEEDGITWTLDQSSEVLGSGKTLTIQVKEFGDAGQYTCHKGGEVLSHSLLLLHKKEDGIWSTDILKDQKEPKNKTFLRCEAKNYSGRFTCWWLTTISTDLTFSVKSSRGSSDPQGVTCGAATLSAERVRGDNKEYEYSVECQEDSACPAAEESLPIEVMVDAVHKLKYENYTSSFFIRDIIKPDPPKNLQLKPLKNSRQVEVSWEYPDTWSTPHSYFSLTFCVQVQGKSKREKKDRVFTDKTSATVICRKNASISVRAQDRYYSSSWSEWASVPCS | – | could replace IL-10 to support cMo survival and differentiation | 50-70% | Optimal concentration (ng/mL): >10 ng/mL (10-100)
10 | IL-24: IL-10 family cytokine, STAT3 activator (protein, UniProt Q13007 52-206, looked up) Interleukin-24: QEFHFGPCQVKGVVPQKLWEAFWAVKDTMQAQDNITSARLLQQEVLQNVSDAESCYLVHTLLEFYLKTVFKNYHNRTVEVRTLKSFSTLANNFVLIVSQLQPSQENEMFSIRDSAHRRFLLFRRAFKQLDVEAALTKALGEVDILLTWMQKFYKL | – | could replace IL-10 to support cMo survival and differentiation | 70-85% | Optimal concentration (ng/mL): >20 ng/mL (20-100)
11 | IL-11: IL-6 family member cytokine (protein, UniProt P20809 22-199, looked up) Interleukin-11: PGPPPGPPRVSPDPRAELDSTVLLTRSLLADTRQLAAQLRDKFPADGDHNLDSLPTLAMSAGALGALQLPGVLTRLRADLLSYLRHVQWLRRAGGSSLKTLEPELGTLQARLDRLLRRLQLLMSRLALPQPPPDPPAPPLAPPSSAWGGIRAAHAILGGLHLTLDWAVRGLLLLKTRL | – | only moderately supported cMo survival and differentiation | – | –
